Assay results taken from PubChem BioAssay AID1259407 (Chemical Carcinogenesis Research Information System (CCRIS), 2018).
Activity calls are given as the source filed them. The rule behind the calls is not given here.

Tested on: CCRIS mutagenicity, Ames/micronucleus/aberration tests
Assay: CCRIS mutagenicity studies
[1] = Test System: AMES SALMONELLA TYPHIMURIUM, Strain/Indicator: TA1538, Metabolic Activation: NONE, Method: STANDARD PLATE
[2] = Test System: AMES SALMONELLA TYPHIMURIUM, Strain/Indicator: TA1538, Metabolic Activation: RAT, LIVER, S-9, AROCLOR 1254, Method: STANDARD PLATE
[3] = Test System: AMES SALMONELLA TYPHIMURIUM, Strain/Indicator: TA97, Metabolic Activation: NONE, Method: STANDARD PLATE
[4] = Test System: AMES SALMONELLA TYPHIMURIUM, Strain/Indicator: TA98, Metabolic Activation: NONE, Method: STANDARD PLATE
[5] = Test System: AMES SALMONELLA TYPHIMURIUM, Strain/Indicator: TA100, Metabolic Activation: NONE, Method: STANDARD PLATE
[6] = Test System: AMES SALMONELLA TYPHIMURIUM, Strain/Indicator: TA97, Metabolic Activation: RAT, LIVER, S-9, AROCLOR 1254, Method: STANDARD PLATE
[7] = Test System: AMES SALMONELLA TYPHIMURIUM, Strain/Indicator: TA100, Metabolic Activation: RAT, LIVER, S-9, AROCLOR 1254, Method: STANDARD PLATE
[8] = Test System: AMES SALMONELLA TYPHIMURIUM, Strain/Indicator: TA98, Metabolic Activation: RAT, LIVER, S-9, AROCLOR 1254, Method: STANDARD PLATE

Measured: mutagenic call

Cc1cc(=O)oc2c3c4c(cc12)CCCN4CCC3
inactive: [1] inactive; negative
active: [2] active; positive

N/C(=N\O)c1ccc(O)c(O)c1
active: Test System: AMES SALMONELLA TYPHIMURIUM, Strain/Indicator: TA98, Metabolic Activation: RAT, LIVER, S-9, DELOR 103, Method: STANDARD PLATE active; positive
inactive: [3] inactive; negative | Test System: AMES SALMONELLA TYPHIMURIUM, Strain/Indicator: TA97, Metabolic Activation: RAT, LIVER, S-9, DELOR 103, Method: STANDARD PLATE inactive; negative | [4] inactive; negative | [5] inactive; negative | Test System: AMES SALMONELLA TYPHIMURIUM, Strain/Indicator: TA100, Metabolic Activation: RAT, LIVER, S-9, DELOR 103, Method: STANDARD PLATE inactive; negative | Test System: AMES SALMONELLA TYPHIMURIUM, Strain/Indicator: TA102, Metabolic Activation: NONE, Method: STANDARD PLATE inactive; negative | Test System: AMES SALMONELLA TYPHIMURIUM, Strain/Indicator: TA102, Metabolic Activation: RAT, LIVER, S-9, DELOR 103, Method: STANDARD PLATE inactive; negative

Fc1ccc2c3c(ccc2c1)-c1cccc2cccc-3c12
active: Test System: AMES SALMONELLA TYPHIMURIUM, Strain/Indicator: TA97A, Metabolic Activation: RAT, LIVER, S-9, AROCLOR 1254, Method: PREINCUBATION active; positive | Test System: AMES SALMONELLA TYPHIMURIUM, Strain/Indicator: TA98, Metabolic Activation: RAT, LIVER, S-9, AROCLOR 1254, Method: PREINCUBATION active; positive | Test System: AMES SALMONELLA TYPHIMURIUM, Strain/Indicator: TA100, Metabolic Activation: RAT, LIVER, S-9, AROCLOR 1254, Method: PREINCUBATION active; positive

NN(c1ccccc1)c1ccccc1
inactive: [3] inactive; negative | [6] inactive; negative | [5] inactive; negative | [7] inactive; negative

Cl/C=C/Cl
active: [6] active; positive | [8] active; positive | [5] active; positive | [7] active; positive
inactive: End Point: IN VITRO CHROMOSOMAL ABERRATIONS, Test System: CHINESE HAMSTER LUNG (CHL), Metabolic Activation: NONE inactive; negative | End Point: IN VITRO CHROMOSOMAL ABERRATIONS, Test System: CHINESE HAMSTER LUNG (CHL), Metabolic Activation: RAT, LIVER, S-9, KC-400 inactive; negative | [3] inactive; negative | Test System: AMES SALMONELLA TYPHIMURIUM, Strain/Indicator: TA98, Metabolic Activation: HAMSTER LIVER S-9, AROCLOR 1254 (10%), Method: PREINCUBATION inactive; negative | Test System: AMES SALMONELLA TYPHIMURIUM, Strain/Indicator: TA98, Metabolic Activation: HAMSTER, LIVER, S-9, AROCLOR 1254 (10%), Method: PREINCUBATION inactive; negative | Test System: AMES SALMONELLA TYPHIMURIUM, Strain/Indicator: TA98, Metabolic Activation: NONE, Method: PREINCUBATION inactive; negative | [4] inactive; negative | Test System: AMES SALMONELLA TYPHIMURIUM, Strain/Indicator: TA98, Metabolic Activation: RAT LIVER S-9, AROCLOR 1254 (10%), Method: PREINCUBATION inactive; negative | Test System: AMES SALMONELLA TYPHIMURIUM, Strain/Indicator: TA98, Metabolic Activation: RAT, LIVER, S-9, AROCLOR 1254 (10%), Method: PREINCUBATION inactive; negative | Test System: AMES SALMONELLA TYPHIMURIUM, Strain/Indicator: TA100, Metabolic Activation: HAMSTER LIVER S-9, AROCLOR 1254 (10%), Method: PREINCUBATION inactive; negative | Test System: AMES SALMONELLA TYPHIMURIUM, Strain/Indicator: TA100, Metabolic Activation: HAMSTER, LIVER, S-9, AROCLOR 1254 (10%), Method: PREINCUBATION inactive; negative | Test System: AMES SALMONELLA TYPHIMURIUM, Strain/Indicator: TA100, Metabolic Activation: NONE, Method: PREINCUBATION inactive; negative | Test System: AMES SALMONELLA TYPHIMURIUM, Strain/Indicator: TA100, Metabolic Activation: RAT LIVER S-9, AROCLOR 1254 (10%), Method: PREINCUBATION inactive; negative | Test System: AMES SALMONELLA TYPHIMURIUM, Strain/Indicator: TA100, Metabolic Activation: RAT, LIVER, S-9, AROCLOR 1254 (10%), Method: PREINCUBATION inactive; negative | Test System: AMES SALMONELLA TYPHIMURIUM, Strain/Indicator: TA104, Metabolic Activation: NONE, Method: STANDARD PLATE inactive; negative | Test System: AMES SALMONELLA TYPHIMURIUM, Strain/Indicator: TA104, Metabolic Activation: RAT, LIVER, S-9, AROCLOR 1254, Method: STANDARD PLATE inactive; negative | Test System: AMES SALMONELLA TYPHIMURIUM, Strain/Indicator: TA1535, Metabolic Activation: HAMSTER LIVER S-9, AROCLOR 1254 (10%), Method: PREINCUBATION inactive; negative | Test System: AMES SALMONELLA TYPHIMURIUM, Strain/Indicator: TA1535, Metabolic Activation: HAMSTER, LIVER, S-9, AROCLOR 1254 (10%), Method: PREINCUBATION inactive; negative | Test System: AMES SALMONELLA TYPHIMURIUM, Strain/Indicator: TA1535, Metabolic Activation: NONE, Method: PREINCUBATION inactive; negative | Test System: AMES SALMONELLA TYPHIMURIUM, Strain/Indicator: TA1535, Metabolic Activation: RAT LIVER S-9, AROCLOR 1254 (10%), Method: PREINCUBATION inactive; negative | Test System: AMES SALMONELLA TYPHIMURIUM, Strain/Indicator: TA1535, Metabolic Activation: RAT, LIVER, S-9, AROCLOR 1254 (10%), Method: PREINCUBATION inactive; negative | Test System: AMES SALMONELLA TYPHIMURIUM, Strain/Indicator: TA1537, Metabolic Activation: HAMSTER LIVER S-9, AROCLOR 1254 (10%), Method: PREINCUBATION inactive; negative | Test System: AMES SALMONELLA TYPHIMURIUM, Strain/Indicator: TA1537, Metabolic Activation: HAMSTER, LIVER, S-9, AROCLOR 1254 (10%), Method: PREINCUBATION inactive; negative | Test System: AMES SALMONELLA TYPHIMURIUM, Strain/Indicator: TA1537, Metabolic Activation: NONE, Method: PREINCUBATION inactive; negative | Test System: AMES SALMONELLA TYPHIMURIUM, Strain/Indicator: TA1537, Metabolic Activation: RAT LIVER S-9, AROCLOR 1254 (10%), Method: PREINCUBATION inactive; negative | Test System: AMES SALMONELLA TYPHIMURIUM, Strain/Indicator: TA1537, Metabolic Activation: RAT, LIVER, S-9, AROCLOR 1254 (10%), Method: PREINCUBATION inactive; negative

CN1CCC(=C2c3ccccc3C=Cc3ccccc32)CC1
inactive: [4] inactive; negative | [8] inactive; negative | [5] inactive; negative | [7] inactive; negative | Test System: AMES SALMONELLA TYPHIMURIUM, Strain/Indicator: TA1535, Metabolic Activation: NONE, Method: STANDARD PLATE inactive; negative | Test System: AMES SALMONELLA TYPHIMURIUM, Strain/Indicator: TA1535, Metabolic Activation: RAT, LIVER, S-9, AROCLOR 1254, Method: STANDARD PLATE inactive; negative | Test System: AMES SALMONELLA TYPHIMURIUM, Strain/Indicator: TA1537, Metabolic Activation: NONE, Method: STANDARD PLATE inactive; negative | Test System: AMES SALMONELLA TYPHIMURIUM, Strain/Indicator: TA1537, Metabolic Activation: RAT, LIVER, S-9, AROCLOR 1254, Method: STANDARD PLATE inactive; negative | [1] inactive; negative | [2] inactive; negative

O=Nn1cc(CC(O)C(=O)O)c2ccccc21 (stereo unspecified)
active: [4] active; positive

COc1ccc2c(OC)c3ccoc3nc2c1
active: Test System: AMES SALMONELLA TYPHIMURIUM, Strain/Indicator: TA98, Metabolic Activation: RAT, LIVER, S-9, PHENOBARBITAL, Method: STANDARD PLATE active; positive | Test System: AMES SALMONELLA TYPHIMURIUM, Strain/Indicator: TA100, Metabolic Activation: RAT, LIVER, S-9, PHENOBARBITAL, Method: STANDARD PLATE active; positive

Oc1cccc2sc3ccccc3c12
active: Test System: CHINESE HAMSTER OVARY, Strain/Indicator: CHO-K1-BH4 (HGPRT)/6-THIOGUANINE, Metabolic Activation: RAT, LIVER, S-9, AROCLOR (4%) active; positive
